This passage reports IC50 results from US20250154145A1, “OXER1 ANTAGONISTS AND USES THEREOF” (Fairhaven Pharmaceuticals Ins., priority 2021, published 2025).

This assay relates to neutrophils. Kind of assay: Neutrophil calcium flux assay (5-OXO-ETE-stimulated, Indo-1 fluorescence). Type of assay: cell-based. The conditions noted are these: 5-OXO-ETE-stimulated calcium flux. An outline of the steps: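 Indo-1-loaded neutrophils (5×10^6 cells/ml, 30 min at 37 °C) in HBSS with Ca/Mg and HEPES, pre-incubated 5 min with antagonist or buffer. Stimulated with 5-OXO-ETE added at 200 nM (4× stock); fluorescence (ex 331/em 410 nm) read every 5 s for 30 cycles, expressed as net fluorescence.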

`C[C@H](CC(=O)O)CC(=O)c1c(CCCCC(=O)Nc2cc(Cl)ccc2O)n(C)c2ccc(Cl)cc12` [Compound I-146]: for the setting “Neutrophil”, the IC50 is 100 to 300 nM. The same measure, in the same setting: the figure for `CC(CC(=O)O)CC(=O)c1c(C[C@H]2CC[C@H](OCc3cccc(Cl)c3)CC2)n(C)c2ncc(C#N)cc12` (stereo partly drawn) [Compound I-402] is 100 to 300 nM; for `Cn1c(CCCCCCC#CC2CC(F)(F)C2)c(C(=O)N2CC[C@H](c3noc(=O)[nH]3)C2)c2cc(Br)cnc21` [Compound I-457] it is greater than 300 nM; for `CC(CC(=O)O)CC(=O)c1c(CCCCCCc2cccc(C#N)c2)n(C)c2ncc(Cl)cc12` (stereo not drawn) [Compound I-285] it is less than 100 nM. For `C[C@H](CC(=O)O)CC(=O)c1c(CCCCOCc2ccc(F)cc2)n(C)c2ncc(Cl)cc12` [Compound I-215], the 50% inhibitory concentration (IC50) (Neutrophil) is greater than 300 nM. Same read-out and setting: the figure for `COc1cc(COCCCCc2c(C(=O)CC(C)CC(=O)O)c3cc(C#N)cnc3n2C)ccc1F` (stereo not drawn) [Compound I-391] is less than 100 nM; for `C[C@H](OCCCCc1c(C(=O)N2CC[C@H](C(=O)O)[C@H]2C)c2cc(C#N)cnc2n1C)c1ccccc1` [Compound I-454] it is greater than 300 nM.

`CC(CC(=O)O)CC(=O)c1c(CCCCCCc2cccc(Cl)c2)n(C[C@@H](O)CO)c2ncc(C#N)cc12` (stereo partly drawn) [Compound I-284]: the IC50 (Neutrophil) is less than 100 nM. Same read-out and setting: the figure for `Cn1c(CCCCCNc2cccc(Cl)c2)c(C(=O)N2CC[C@H](C(=O)O)C2)c2cc(Cl)cnc21` [Compound I-148] is greater than 300 nM. Turning to `CC(CC(=O)O)CC(=O)c1c(CCOCCNc2cccc(F)c2)n(C)c2ncc(C#N)cc12` (stereo not drawn) [Compound I-296], under “Neutrophil”, the IC50 lay within 100 to 300 nM.

On to `Cn1c(CCCCCCC#CC2CC(F)(F)C2)c(C(=O)N2CC[C@](F)(C(=O)O)C2)c2cc(C#N)cnc21` [Compound I-344], for which the IC50 (Neutrophil) was greater than 300 nM. Consider `C[C@@H](CC(=O)O)CC(=O)c1c(CCCCOCc2cccc(C#N)c2)n(C)c2cnccc12` [Compound I-395], for which, where the note is “Neutrophil”, the IC50 is greater than 300 nM. Turning to `CC(CC(=O)O)CC(=O)c1c(CCCCCCC#CCC(F)(F)F)n(C)c2ccc(Cl)cc12` (stereo not drawn) [Compound I-111], the half-inhibitory concentration (IC50) (Neutrophil) was in the range of 100 to 300 nM. Same read-out and setting: in the case of `C[C@H](CC(=O)O)CC(=O)c1c(CCCCOCc2cccc(C#N)c2)n(C)c2ncc(F)cc12` [Compound I-416] it was 100 to 300 nM; in that of `CC(CC(=O)NS(C)(=O)=O)CC(=O)c1c(CCCCOCc2cccc(Cl)c2)n(C)c2ccc(C#N)cc12` (stereo not drawn) [Compound I-300], greater than 300 nM. Same read-out and setting: in the case of `COc1nccc(COCCCCc2c(C(=O)CC(C)CC(=O)O)c3cc(Cl)cnc3n2C)n1` (stereo not drawn) [Compound I-448] it was greater than 300 nM; in that of `C[C@H](CC(=O)O)CC(=O)c1c(CCCCO[C@@H](C)c2ccccc2)n(C)c2ncc(C#N)cc12` [Compound I-432], less than 100 nM; in that of `C[C@H](CC(=O)O)CC(=O)c1c(CCCCOCc2cccc(Cl)c2)[nH]c2ccc(Cl)cc12` [Compound I-189], 100 to 300 nM. For the compound `Cn1c(CCCCCCc2cccc(Cl)c2)c(C(=O)N2CCC[C@H](C(=O)O)C2)c2cc(Cl)ccc21` [Compound I-155], the IC50 (Neutrophil) lay within 100 to 300 nM. Still for that read-out and setting: the figure for `C[C@H](CC(=O)O)CC(=O)c1c(CCCCCCC#CC2CCC2)n(C)c2ccc(Cl)cc12` [Compound I-113] is greater than 300 nM. Consider `C[C@H](CC(=O)O)CC(=O)c1c(CCCCO[C@H](C)c2ccccc2)n(C)c2ncc(C#N)cc12` [Compound I-434], for which the IC50 (Neutrophil) was less than 100 nM. The same measure, in the same setting: the figure for `C[C@H](CC(=O)O)CC(=O)c1c(CCCOCCC#CC2CC(F)(F)C2)n(C)c2ccc(Cl)cc12` [Compound I-325] is less than 100 nM; for `C[C@H](CC(=O)O)CC(=O)c1c(CCCCCCc2ccncc2)n(C)c2ccc(Cl)cc12` [Compound I-55] it is less than 100 nM.

`CC(CC(=O)O)CC(=O)c1c(CCCCCCc2cccc(Cl)c2)n(CCN(C)C)c2ncc(C#N)cc12` (stereo not drawn) [Compound I-281]: for the setting “Neutrophil”, the IC50 was greater than 300 nM. For the compound `Cn1c(CCCCCCc2cccc(Cl)c2)c(CN2CC[C@H](C(=O)O)C2)c2cc(Cl)ccc21` [Compound I-303], under “Neutrophil”, the IC50 is greater than 300 nM. On the same count and under the same terms, the figure for `C[C@@H](CC(=O)O)CC(=O)c1c(CCCCO[C@@H](C)c2ccccc2)n(C)c2ncc(C#N)cc12` [Compound I-431] is greater than 300 nM; for `COC(=O)[C@H]1CCN(C(=O)c2c(CCCCCCC#CC3CC(F)(F)C3)n(C)c3ncc(C#N)cc23)[C@@H]1C` [Compound I-351] it is greater than 300 nM. As to `CC(CC(=O)O)CC(=O)c1c(CCCCCC(O)c2cccc(C#N)c2)n(C)c2ncc(Cl)cc12` (single isomer, unassigned) [Compound I-306], the concentration for half-maximal inhibition (IC50) is greater than 300 nM. As to `Cn1c(-c2ccccc2Cl)cc(C(=O)N2CC[C@H](C(=O)O)C2)c1CCCCOCc1cccc(Cl)c1` [Compound I-171], the IC50 (Neutrophil) was greater than 300 nM. Regarding `Cn1c(CCCCCCC#CC2CC(F)(F)C2)c(C(=O)N2CC[C@H](C(=O)NCC(=O)O)C2)c2cc(C#N)cnc21` [Compound I-462], the IC50 (Neutrophil) is greater than 300 nM. Regarding `C[C@H](CC(=O)O)CC(=O)c1c(CCOCC#Cc2cccnc2)n(C)c2ncc(Cl)cc12` [Compound I-228], for the setting “Neutrophil”, the half-inhibitory concentration (IC50) was greater than 300 nM.

For the compound `CC(=O)N(C)c1cccc(COCCCCc2c(C(=O)CC(C)CC(=O)O)c3cc(C#N)cnc3n2C)c1` (stereo not drawn) [Compound I-299], the IC50 (Neutrophil) lay in the range of 100 to 300 nM. The same measure, in the same setting: in the case of `C[C@H](CC(=O)O)CC(=O)c1c(CCCCOCc2cccc(Cl)c2)n(C)c2cnccc12` [Compound I-407] it was less than 100 nM; in that of `C[C@@H](CC(=O)O)CC(=O)c1c(CCCCOCc2cccc(Cl)c2)n(C)c2cnc(Cl)cc12` [Compound I-411], greater than 300 nM; in that of `CC(C)OCCCc1c(C(=O)C[C@H](C)CC(=O)O)c2cc(Cl)ccc2n1C` [Compound I-71], greater than 300 nM. Consider `C[C@H](CC(=O)O)CC(=O)c1c(CCCCOCc2cccc(C#N)c2)n(C)c2nc(F)c(Cl)cc12` [Compound I-418], for which the half-maximal inhibitory concentration (IC50) (Neutrophil) was less than 100 nM. In the case of `CC(CC(=O)O)CC(=O)c1c2cc(C#N)cnc2n(C)c1[C@H]1CC[C@@H](OCc2cccc(Cl)c2)CC1` (stereo partly drawn) [Compound I-292], the IC50 (Neutrophil) was greater than 300 nM.

In the case of `C[C@H](CC(=O)O)CC(=O)c1c(COCCCCc2cccc(Cl)c2)n(C)c2ccc(Cl)cc12` [Compound I-63], the IC50 (Neutrophil) was less than 100 nM. As for `CC(CC(=O)O)CC(=O)c1c(CCCCOCCc2ccccc2)n(C)c2ncc(C#N)cc12` (stereo not drawn) [Compound I-424], the IC50 (Neutrophil) is greater than 300 nM. Take `Cn1c(CCCCCCCC#CC2CC(F)(F)C2)c(C(=O)N2CC[C@H](C(=O)O)C2)c2cc(Br)cnc21` [Compound I-350]: the 50% inhibitory concentration (IC50) (Neutrophil) is greater than 300 nM. As to `C[C@H](CC(=O)O)CC(=O)c1c(CCCCOCc2cccc(Cl)c2)[nH]c2ccc(C#N)cc12` [Compound I-382], the concentration for half-maximal inhibition (IC50) (Neutrophil) is less than 100 nM. On the same count and under the same terms, the figure for `CC(C)[C@H](NC(=O)C[C@@H](C)CC(=O)c1c(CCCCOCc2ccccc2)n(C)c2ncc(C#N)cc12)C(=O)O` [Compound I-466] is greater than 300 nM; for `C[C@H](CC(=O)O)CC(=O)c1c(CCCCCCC#CC2CC(F)(F)C2)n(C)c2ncc(Cl)cc12` [Compound I-320] it is less than 100 nM; for `C[C@H](CC(=O)O)CC(=O)c1c(CCCCOCC#CC2CC(F)(F)C2)n(C)c2ccc(Cl)cc12` [Compound I-324] it is less than 100 nM. As to `Cn1c(CCCCOCc2cccc(Cl)c2)c(C(=O)N2CCC[C@H](C(=O)O)C2)c2cc(C#N)cnc21` [Compound I-181], the IC50 (Neutrophil) is greater than 300 nM. Same read-out and setting: the figure for `Cn1c(CCCCOCc2cccc(Cl)c2)c(C(=O)N2CC[C@H](C(=O)O)C2)c2cc(C(F)(F)F)cnc21` [Compound I-183] is greater than 300 nM; for `CC(CC(=O)O)CC(=O)c1c(CCCCCCC#CC2CC(F)(F)C2)n(C)c2ccc(Cl)cc12` (stereo not drawn) [Compound I-278] it is less than 100 nM. As for `Cn1c(CCCCCC(O)c2cccc(Cl)c2)c(C(=O)N2CC[C@H](c3nnn[nH]3)C2)c2cc(C#N)cnc21` (stereo partly drawn) [Compound I-225], under “Neutrophil”, the IC50 lay in the range of 100 to 300 nM.

With `C[C@H](CC(=O)O)CC(=O)c1c(CCCCOCC23CC(C#N)(C2)C3)n(C)c2ccc(Cl)cc12` [Compound I-108], the half-maximal inhibitory concentration (IC50) (Neutrophil) is 100 to 300 nM. `Cn1c(CCCOCCc2cccc(Cl)c2)c(C(=O)N2CC[C@H](C(=O)O)C2)c2cc(Cl)cnc21` [Compound I-174]: the IC50 (Neutrophil) is greater than 300 nM. The same measure, in the same setting: in the case of `CC(CC(=O)O)CC(=O)c1c(CCOCCNc2cccc(Cl)c2)n(C)c2ncc(C#N)cc12` (stereo not drawn) [Compound I-288] it was 100 to 300 nM; in that of `C[C@H](CC(=O)O)CC(=O)c1c(CCCCCCC#CC2CC(F)(F)C2)n(C)c2ccc(Cl)cc12` [Compound I-319], less than 100 nM.

With `C[C@H](CC(=O)O)CC(=O)c1c(CCCCCCc2cncs2)n(C)c2ncc(C#N)cc12` [Compound I-371], the concentration for half-maximal inhibition (IC50) (Neutrophil) is less than 100 nM. On the same count and under the same terms, the figure for `C[C@H](CC(=O)O)CC(=O)c1c(CCCCCNc2cnccn2)n(C)c2ccc(Cl)cc12` [Compound I-129] is greater than 300 nM; for `CC(CC(=O)O)CC(=O)c1c(CCCCOCc2cccc(C(=O)N(C)C)c2)n(C)c2ncc(C#N)cc12` (stereo not drawn) [Compound I-370] it is less than 100 nM.

For the compound `C[C@H](CC(=O)O)CC(=O)c1c(CCCCCCC#CC2COC2)n(C)c2ccc(Cl)cc12` [Compound I-332], the IC50 (Neutrophil) is less than 100 nM. On the same count and under the same terms, the figure for `CC(CC(=O)O)CC(=O)c1c(CCCCOCc2cccc(Cl)c2)n(C)c2ncc(CN(C)C)cc12` (stereo not drawn) [Compound I-375] is greater than 300 nM; for `COc1cccc(COCCCCc2c(C(=O)CC(C)CC(=O)O)c3cc(Cl)cnc3n2C)c1` (stereo not drawn) [Compound I-403] it is 100 to 300 nM. On the same count and under the same terms, in the case of `Cn1c(CCCCCCC#CC2CC(F)(F)C2)c(C(=O)N2CC[C@H](C(=O)O)C2)c2cc(Cl)ccc21` [Compound I-339] it was less than 100 nM; in that of `CC(CC(=O)O)CC(=O)c1c(CCCCCC(O)c2ccc(F)cc2)n(C)c2ncc(Cl)cc12` (stereo not drawn) [Compound I-218], greater than 300 nM; in that of `C[C@@H](CC(=O)O)CC(=O)c1c(CCCCCCC#CC2CC(F)(F)C2)n(C)c2ncc(C#N)cc12` [Compound I-329], greater than 300 nM. Same read-out and setting: the figure for `CC(CC(=O)O)CC(=O)c1c(CCCCOCc2cccc(Cl)c2)n(CCO)c2ncc(C#N)cc12` (stereo not drawn) [Compound I-377] is greater than 300 nM; for `CC(=O)Nc1cccc(C(O)CCCCCc2c(C(=O)CC(C)CC(=O)O)c3cc(C#N)cnc3n2C)c1` (stereo not drawn) [Compound I-312] it is greater than 300 nM.
